Test results as given in ChEMBL document CHEMBL1926642, “Relevance of the C-5 position to schweinfurthin induced cytotoxicity” (2011).

Tests used:
Format in all cases: functional
T47D = test: Growth inhibition of human T47D cells after 48 hrs by sulforhodamine B assay
SNB-75 = test: Growth inhibition of human SNB75 cells after 48 hrs by sulforhodamine B assay; conditions: SNB-75, 48 h
SF-295 = test: Growth inhibition of human SF295 cells after 48 hrs by sulforhodamine B assay; conditions: SF-295, 48 h
KM12 = test: Growth inhibition of human KM12 cells after 48 hrs by sulforhodamine B assay; conditions: KM12, 48 h
BT-549 = test: Growth inhibition of human BT549 cells after 48 hrs by sulforhodamine B assay; conditions: BT-549, 48 h
NCI-H460 = test: Growth inhibition of human NCI-H460 cells after 48 hrs by sulforhodamine B assay; conditions: NCI-H460, 48 h
UO-31 = test: Growth inhibition of human UO31 cells after 48 hrs by sulforhodamine B assay; conditions: UO-31, 48 h
SW-620 = test: Growth inhibition of human SW620 cells after 48 hrs by sulforhodamine B assay; conditions: SW-620, 48 h
SF-268 = test: Growth inhibition of human SF268 cells after 48 hrs by sulforhodamine B assay; conditions: SF-268, 48 h
SK-MEL-28 = test: Growth inhibition of human SK-MEL-28 cells after 48 hrs by sulforhodamine B assay; conditions: SK-MEL-28, 48 h
[1] = Growth inhibition of human Hs 578T cells after 48 hrs by sulforhodamine B assay
RXF 393 = test: Growth inhibition of human RXF393 cells after 48 hrs by sulforhodamine B assay; conditions: RXF 393, 48 h
COLO 205 = test: Growth inhibition of human COLO205 cells after 48 hrs by sulforhodamine B assay; conditions: COLO 205, 48 h
A549 = test: Growth inhibition of human A549 cells after 48 hrs by sulforhodamine B assay; conditions: A549, 48 h
PC-3 = test: Growth inhibition of human PC3 cells after 48 hrs by sulforhodamine B assay; conditions: PC-3, 48 h
EKVX = test: Growth inhibition of human EKVX cells after 48 hrs by sulforhodamine B assay
[2] = read-out: pLC50 (the source's name) (converted)

Compound: COc1cc(/C=C/c2cc(O)c3c(c2)C[C@@H]2C(C)(C)[C@H](O)CC[C@@]2(C)O3)cc(O)c1C/C=C(\C)CCC=C(C)C
- LC50 (T47D): 39.8 µM
- TGI (T47D; read-out: pTGI (converted)): 7.08 µM
- GI50 (SNB-75): 0.123 µM
- LC50 (SNB-75): 33.9 µM
- TGI (SNB-75; read-out: pTGI (converted)): 6.31 µM
- LC50 (SF-295): 26.9 µM
- GI50 (SF-295; read-out: GI50): 0.022 µM
- GI50 (SF-295; read-out: pGI50 (converted)): 0.024 µM
- TGI (SF-295; read-out: pTGI (converted)): 0.195 µM
- GI50 (KM12): 1.17 µM
- LC50 (KM12): 7.08 µM
- TGI (KM12; read-out: pTGI (converted)): 2.88 µM
- GI50 (BT-549): 0.275 µM
- LC50 (BT-549): 69.2 µM
- TGI (BT-549; read-out: pTGI (converted)): 12 µM
- GI50 (NCI-H460): 0.339 µM
- LC50 (concentration killing 50% of cells) (NCI-H460): 64.6 µM
- TGI (NCI-H460; read-out: pTGI (converted)): 9.12 µM
- GI50 (UO-31): 0.178 µM
- LC50 (UO-31): 37.2 µM
- TGI (UO-31; read-out: pTGI (converted)): 11.5 µM
- GI50 (SW-620): 0.331 µM
- LC50 (SW-620): 5.13 µM
- TGI (SW-620; read-out: pTGI (converted)): 1.58 µM
- GI50 (SF-268): 1.35 µM
- LC50 (SF-268): 42.7 µM
- TGI (SF-268; read-out: pTGI (converted)): 5.13 µM
- GI50 (SK-MEL-28): 1 µM
- CC50 (SK-MEL-28; [2]): 7.94 µM
- TGI (SK-MEL-28; read-out: pTGI (converted)): 2.75 µM
- GI50 [1]: 0.0372 µM
- CC50 [1, 2]: 26.9 µM
- TGI ([1]; read-out: pTGI (converted)): 0.776 µM
- GI50 (RXF 393): < 0.01 µM
- LC50 (50% lethal concentration) (RXF 393): 4.37 µM
- TGI (RXF 393; read-out: pTGI (converted)): 0.055 µM
- GI50 (COLO 205): 0.575 µM
- LC50 (COLO 205): 7.24 µM
- TGI (COLO 205; read-out: pTGI (converted)): 2.24 µM
- LC50 (A549): 40.7 µM
- GI50 (A549; read-out: GI50): 0.72 µM
- GI50 (A549; read-out: pGI50 (converted)): 0.955 µM
- TGI (A549; read-out: pTGI (converted)): 10.7 µM
- GI50 (PC-3): 0.372 µM
- CC50 (PC-3; [2]): 41.7 µM
- TGI (PC-3; read-out: pTGI (converted)): 5.25 µM
- GI50 (EKVX): 0.977 µM
- LC50 (50% lethal concentration) (EKVX): 36.3 µM
- TGI (EKVX; read-out: pTGI (converted)): 10.2 µM
